Laboratory results as given in PubChem BioAssay (NCI).
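In this assay, cells in 96-well plates receive the compound at five concentrations for 48 hours. Endpoints are linearly interpolated between the surrounding concentrations. GI50 is the concentration that inhibits growth by half. At the TGI there is no net growth.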

Tests used:
Assay in all cases: NCI-60 cell line screen, 48 h
[1] = tested on: 786-0 renal
[2] = tested on: A498 renal
[3] = tested on: A549 NSCLC
[4] = tested on: ACHN renal
[5] = tested on: BT-549 breast
[6] = tested on: CAKI-1 renal
[7] = tested on: CCRF-CEM leukemia
[8] = tested on: COLO 205 colon
[9] = tested on: DU-145 prostate
[10] = tested on: EKVX NSCLC
[11] = tested on: HCC-2998 colon
[12] = tested on: HCT-116 colon
[13] = tested on: HCT-15 colon
[14] = tested on: HL-60(TB) leukemia
[15] = tested on: HOP-62 NSCLC
[16] = tested on: HOP-92 NSCLC
[17] = tested on: HS 578T breast
[18] = tested on: HT29 colon
[19] = tested on: IGROV1 ovarian
[20] = tested on: K-562 leukemia
[21] = tested on: KM12 colon
[22] = tested on: LOX IMVI melanoma
[23] = tested on: M14 melanoma
[24] = tested on: MALME-3M melanoma
[25] = tested on: MCF7 breast
[26] = tested on: MDA-MB-231 breast
[27] = tested on: MDA-MB-435
[28] = tested on: MOLT-4 leukemia
[29] = tested on: NCI-H226 lung

SMILES: C=C1C(=O)O[C@H]2[C@H]1CC/C(COC(=O)C(=O)c1c[nH]c3ccc(Cl)cc13)=C\CC[C@@]1(C)O[C@@H]21
- GI50 [1]: 1530 nM
- TGI [1]: 2930 nM
- GI50 [2]: 2750 nM
- TGI [2]: 5.54 µM
- GI50 [3]: 2520 nM
- TGI [3]: 6.03 µM
- GI50 [4]: 1320 nM
- TGI [4]: 2700 nM
- GI50 [5]: 1380 nM
- TGI [5]: 3.19 µM
- GI50 [6]: 2810 nM
- TGI [6]: 10.9 µM
- GI50 [7]: 375 nM
- TGI [7]: 10.1 µM
- GI50 [8]: 2120 nM
- TGI [8]: 4.58 µM
- GI50 [9]: 1900 nM
- TGI [9]: 4.13 µM
- GI50 [10]: 2060 nM
- TGI [10]: 5.03 µM
- GI50 [11]: 1800 nM
- TGI [11]: 3.36 µM
- GI50 [12]: 1650 nM
- TGI [12]: 3.23 µM
- GI50 [13]: 382 nM
- TGI [13]: 1630 nM
- GI50 [14]: 1910 nM
- TGI [14]: 5.09 µM
- GI50 [15]: 1630 nM
- TGI [15]: 3.66 µM
- GI50 [16]: 1860 nM
- TGI [16]: 3.42 µM
- GI50 [17]: 3.52 µM
- TGI [17]: 29.4 µM
- GI50 [18]: 781 nM
- TGI [18]: 3.01 µM
- GI50 [19]: 1630 nM
- TGI [19]: 3.32 µM
- GI50 [20]: 1580 nM
- TGI [20]: 6.18 µM
- GI50 [21]: 3.21 µM
- TGI [21]: 11.6 µM
- GI50 [22]: 183 nM
- TGI [22]: 396 nM
- GI50 [23]: 1590 nM
- TGI [23]: 3.62 µM
- GI50 [24]: 1740 nM
- TGI [24]: 3.47 µM
- GI50 [25]: 779 nM
- TGI [25]: 4.27 µM
- GI50 [26]: 1840 nM
- TGI [26]: 4.03 µM
- GI50 [27]: 1800 nM
- TGI [27]: 4.23 µM
- GI50 [28]: 778 nM
- TGI [28]: 5.47 µM
- GI50 [29]: 1740 nM
- TGI [29]: 3.31 µM
